According to ChEMBL document CHEMBL5532708, “Tetrahydroxanthene-1,3(2H)-diones and Oxidized Hexadiene Derivatives from Uvaria leptopoda and Their Biological Activities” (J Nat Prod, 2024):
Values after ≈ are worked out from the molar mass of the structure shown.

Key:
[1] = test system: Plasmodium falciparum; experiment: Antiplasmodial activity against multidrug resistant Plasmodium falciparum K1 assessed as reduction in parasite growth by [3H]-hypoxanthine incorporation assay; assay type: functional, organism-based
[2] = test system: SNU1; experiment: Cytotoxicity against human SNU1 cells assessed as reduction in cell viability incubated for 24 hrs by MTT assay; assay type: functional, cell-based; details: SNU1, 24 h
[3] = test system: RAW264.7; experiment: Antiinflammatory activity in mouse RAW264.7 cells assessed as inhibition of LPS-induced NO production at 15 uM incubated for 24 hrs by Griess reagent based analysis relative to control; assay type: functional; design: scale not given: the % may be the effect or the level left
[4] = Cytotoxicity against mouse RAW264.7 cells assessed as cell viability at 15 uM incubated for 24 hrs by MTT assay relative to control; assay type: toxicity, cell-based; details: read-out: Activity
[5] = test system: RAW264.7; experiment: Antiinflammatory activity in mouse RAW264.7 cells assessed as inhibition of LPS-induced NO production incubated for 24 hrs by Griess reagent based analysis; assay type: functional, cell-based; details: RAW264.7, 24 h
[6] = Cytotoxicity against human Lu1 cells assessed as inhibition of cell growth incubated for 72 hrs by SRB assay; assay type: functional, cell-based; details: Lu1, 72 h
[7] = test system: KB; experiment: Cytotoxicity against human KB cells by SRB assay; assay type: functional, cell-based

Row | Compound | IC50 [2] [µM] | Activity [3] [%] | viability at 24 h, 15 µM [4] [%] | other results
1 | COc1cc(OC)c([C@@H]2Oc3c(OC)c(OC)cc(OC)c3[C@@H](/C=C/c3ccccc3)[C@H]2C(=O)c2ccccc2)c(O)c1OC | – | – | – | IC50 [1]: 3.02 µg/mL (≈ 4.93 µM)
2 | COc1ccc2c(c1)C[C@H]1[C@@H](OC(=O)c3ccccc3)[C@H](OC(C)=O)C(COC(=O)c3ccccc3)=C[C@H]1O2 | 130 | 15 | > 90 | –
3 | O=C(O)Cc1ccccc1Nc1c(Cl)cccc1Cl [DICLOFENAC SODIUM] | – | – | – | IC50 [5]: 331 µM
4 | COc1ccc2c(c1)C[C@]1(OC)C(=O)/C(=C(O)\C=C\c3ccccc3)C(=O)C[C@]1(OC)O2 (racemic) | 34 | 73 | > 90 | IC50 [5]: 6.7 µM
5 | COc1ccc2c(c1)C[C@]1(OC)C(=O)/C(=C(/O)[C@H]3[C@H](c4ccccc4)[C@H](/C(O)=C4/C(=O)C[C@@]5(OC)Oc6ccc(OC)cc6C[C@@]5(OC)C4=O)[C@H]3c3ccccc3)C(=O)C[C@]1(OC)O2 | 18 | 6.5 | > 90 | –
6 | O=C1c2cc(O)ccc2-c2c3c(cc4ccnc1c24)OCO3 | – | – | – | IC50 [6]: 9.22 µg/mL (≈ 31.7 µM)
7 | COc1cc(OC)c(C(=O)/C=C/c2ccccc2)c(O)c1OC | 11 | -11 | > 90 | –
8 | COc1cc2cc(-c3ccc(O)cc3)ccc2cc1O | – | – | – | IC50 [7]: 5.05 µM
9 | CC(C)[C@@H](C)/C=C/[C@@H](C)[C@H]1CCC2=C3C=CC4=CC(=O)CC[C@]4(C)[C@H]3CC[C@@]21C | – | – | – | IC50 [6]: 10.2 µg/mL (≈ 26 µM)
10 | CC(=O)OC[C@@]1(COC(=O)c2ccccc2)O[C@H]1/C=C\COC(=O)c1ccccc1 | 37 | 12 | > 90 | –
11 | CC(=O)OC[C@@](O)(COC(=O)c1ccccc1)[C@@H](O)/C=C\COC(=O)c1ccccc1 | 82 | 14 | > 90 | –
